From patent US20240174638A1, “HETEROARYL DERIVATIVES AS APELIN RECEPTOR AGONISTS” (RESEARCH TRIANGLE INSTITUTE, priority 2021, published 2024)
Like-named read-outs stand apart in the source and are kept apart here.

Tests used:
[1] = system: Salmonella typhimurium (TA98, TA100, TA1535 and TA1537)
[2] = Plasma and tissue pharmacokinetics following a single oral administration in male SD rat; format: in vivo
Description: Assay: Plasma and Tissue Pharmacokinetics of Example 22 Following a Single Oral Administration in Male SD Rat
Preparation of PO (10 mg/kg, 10 mL/kg) Dosing
1 mg/mL solution of 0.5% (w/v) CMC-Na, 0.1% (v/v) Tween 80 in Milli-Q Water.
Dissolved 29.68 mg of EXAMPLE 22 in 29.637 mL of 0.5% (w/v) CMC-Na, 0.1% (v/v). Tween 80 in Milli-Q Water with vortexing and sonicate to obtain a solution.
(§1) The desired serial concentrations of working solutions were achieved by diluting stock solution of analyte with 50% acetonitrile in water solution. 5 μL of working solutions (10, 20, 50, 100, 500, 1000, 5000, 10000 ng/mL) were added to 50 μL of the blank SD Rat plasma to achieve calibration standards of 1˜1000 ng/mL (1, 2, 5, 10, 50, 100, 500, 1000 ng/mL) in a total volume of 55 μL. Four quality control samples at 2 ng/mL, 5 ng/mL, 50 ng/mL and 800 ng/mL for plasma were prepared independently of those used for the calibration curves. These QC samples were prepared on the day of analysis in the same way as calibration standards.
55 μL standards, 55 μL QC samples and 55 μL unknown samples (50 μL plasma with 5 μL blank solution) were added to 200 μL of acetonitrile containing IS mixture for precipitating protein respectively. Then the samples were vortexed for 30 s. After centrifugation at 4 degree Celsius, 3900 rpm for 15 min, the supernatant was diluted 3 times with water. 20 μL of diluted supernatant was injected into the LC/MS/MS system for quantitative analysis.
as §1, with “Rat tissue (lung, brain, kidney, muscle/skeletal, spleen, heart and skin) homogenous” for “Rat plasma”, “for tissue” for “for plasma”
50 μL standards, 50 μL QC samples and 50 μL unknown samples (50 μL Tissue with 5 μL blank solution) were added to 200 μL of acetonitrile containing IS mixture for precipitating protein respectively. Then the samples were vortexed for 30 s. After centrifugation at 4 degree Celsius, 3900 rpm for 15 min, the supernatant was diluted 3 times with water. 50 μL of heart diluted supernatant and 20 μL of other tissue diluted supernatant was injected into the LC/MS/MS system for quantitative analysis.

SMILES: O=C(O)C[C@H](CCN1CCCC(F)(F)C1)NC(=O)c1cc(-c2ccccc2C(F)(F)F)n(-c2nccs2)n1 [Example 22, (3S)-5-(3,3-difluoropiperidin-1-yl)-3-{[1-(1,3-thiazol-2-yl)-5-[2-(trifluoromethyl)phenyl]-1H-pyrazol-3-yl]formamido}pentanoic acid]
- Cytotoxicity Code [1]: N
- cytotoxicity to tester strains [1]: No cytotoxicity was observed
- dose related increase of revertant colonies [1]: No dose related increase
- precipitate in Mini-Ames assay [1]: No precipitate was observed
- 4 h Conc., Brain (mean) ([2]; 4 h post dose): BLQ
- 24 h Conc., Brain (mean) ([2]; 24 h post dose): BLQ
- 24 h Conc., Heart (mean) ([2]; 24 h post dose): BLQ
- 24 h Conc., Muscle (mean) ([2]; 24 h post dose): BLQ
- 24 h Conc., Skin (mean) ([2]; 24 h post dose): BLQ
- 24 h Conc., Spleen (mean) ([2]; 24 h post dose): BLQ
- concentration at 4 h ([2]; heart, 10 mg/kg, 4 h post dose, read-out: 4 h Conc., Heart (mean)): 28.8 ng/g
- Kp at 4 h ([2]; heart, 10 mg/kg, 4 h post dose, read-out: 4 h Tissue:Plasma Ratio, Heart): 0.28
- Kp at 24 h ([2]; kidney (to plasma), 10 mg/kg, 24 h post dose, read-out: 24 h Tissue:Plasma Ratio, Kidney): 3.47
- concentration at 4 h ([2]; kidney, 10 mg/kg, 4 h post dose, read-out: 4 h Conc., Kidney (mean)): 305 ng/g
- Kp at 4 h ([2]; kidney, 10 mg/kg, 4 h post dose, read-out: 4 h Tissue:Plasma Ratio, Kidney): 3.11
- concentration at 24 h ([2]; kidney, 10 mg/kg, 24 h post dose, read-out: 24 h Conc., Kidney (mean)): 22.9 ng/g
- concentration at 4 h ([2]; lung, 10 mg/kg, 4 h post dose, read-out: 4 h Conc., Lung (mean)): 40 ng/g
- Kp at 4 h ([2]; lung, 10 mg/kg, 4 h post dose, read-out: 4 h Tissue:Plasma Ratio, Lung): 0.39
- concentration at 4 h ([2]; muscle (skeletal), 10 mg/kg, 4 h post dose, read-out: 4 h Conc., Muscle (mean)): 7.3 ng/g
- Kp at 4 h ([2]; muscle (skeletal), 10 mg/kg, 4 h post dose, read-out: 4 h Tissue:Plasma Ratio, Muscle): 0.07
- concentration at 4 h ([2]; plasma, 10 mg/kg, 4 h post dose, read-out: 4 h Conc., Plasma (mean)): 102 ng/mL
- concentration at 24 h ([2]; plasma, 10 mg/kg, 24 h post dose, read-out: 24 h Conc., Plasma (mean)): 6.6 ng/mL
- concentration at 4 h ([2]; skin, 10 mg/kg, 4 h post dose, read-out: 4 h Conc., Skin (mean)): 19.3 ng/g
- Kp at 4 h ([2]; skin, 10 mg/kg, 4 h post dose, read-out: 4 h Tissue:Plasma Ratio, Skin): 0.19
- concentration at 4 h ([2]; spleen, 10 mg/kg, 4 h post dose, read-out: 4 h Conc., Spleen (mean)): 14 ng/g
- Kp at 4 h ([2]; spleen, 10 mg/kg, 4 h post dose, read-out: 4 h Tissue:Plasma Ratio, Spleen): 0.14
